≈ marks a conversion by molar mass, not a printed value.

As usually defined, the MBC is the lowest tested concentration that kills the bacteria rather than only halting them. The term MIC denotes the smallest concentration in the dilution series that meets the test's criterion for growth inhibition.

Assay type in all cases: cell-based
Assay [1] relates to S. aureus ATCC 43300 (MRSA). The experiment in a line: Inhibition zone against MDRB, agar plate diffusion.
For assay [2], the system named is S. aureus ATCC 33591. The assay can be described thus: Inhibition zone against MDRB, agar plate diffusion.
The subject of assay [3] is E. coli ATCC BAA-196. The assay can be described thus: Inhibition zone against MDRB, agar plate diffusion.
In assay [4] the test system is P. aeruginosa ATCC BAA-2111. The experiment in a line: Inhibition zone against MDRB, agar plate diffusion.
Assay [5] relates to E. coli ATCC BAA-196. The assay can be described thus: MIC/MBC against MDRB, paper disk diffusion. To be noted: Escherichia coli, ATCCBAA196, E. coli ATCC BAA-196. An excerpt:
(§1) The inhibition zone (IZ, mm±standard deviation) of pyrazole Schiff bases ( 6b, 7b, 7c, 8a, 8d and 9b) was
(§2) measurement according to the agar plate diffusion method against a panel of multidrug-resistant bacteria
(MDRB). […]

Assay [6] concerns P. aeruginosa ATCC BAA-2111. The experiment in a line: MIC/MBC against MDRB, paper disk diffusion. To be noted: Pseudomonas aeruginosa, ATCCBAA2111, P. aeruginosa ATCC BAA-2111.
Text: as §1, §2
(MDRB). […]

The test system of assay [7] is S. aureus ATCC 33591. The assay can be described thus: MIC/MBC against MDRB, paper disk diffusion. To be noted: Staphylococcus aureus, ATCC33591, S. aureus ATCC 33591.
Text: as §1, §2
(MDRB). […]
For orientation: A growth-free zone around the sample is the usual read-out of agar diffusion tests.

In assay [8] the test system is S. aureus ATCC 43300 (MRSA). The experiment in a line: MIC/MBC against MDRB, paper disk diffusion. To be noted: Staphylococcus aureus, S. aureus ATCC 43300.
Text: as §1, §2
(MDRB). […]

Turning to `CCn1cc(C(=O)O)c(=O)c2cc(F)c(N3CCNCC3)cc21` [Norfloxacin, reference compound], the “Mean Diameter of Inhibition Zone against MDRB” value in assay [1] is given as 25 ± 0.50 mm; with S. aureus ATCC 33591 [2] it was 26 ± 0.5 mm; in the assay on E. coli ATCC BAA-196 [3], 27 ± 0.98 mm; in assay [4], 24 ± 0.47 mm. The MBC turned out to be 3.53 µg/mL (≈ 11.1 µM) in the assay on E. coli ATCC BAA-196 [5] (read-out: MBC), 4.69 µg/mL (≈ 14.7 µM) in assay [6] (read-out: MBC), 1.56 µg/mL (≈ 4.89 µM) in the assay on S. aureus ATCC 33591 [7] (read-out: MBC) and 2.81 µg/mL (≈ 8.8 µM) in assay [8] (read-out: MBC). For the same compound, the MIC in the assay on E. coli ATCC BAA-196 [5] (read-out: MIC) worked out at 1.57 µg/mL (≈ 4.92 µM); in assay [6] (read-out: MIC) it was 3.13 µg/mL (≈ 9.8 µM); in the assay with S. aureus ATCC 33591 [7] (read-out: MIC), 0.78 µg/mL (≈ 2.44 µM); in assay [8] (read-out: MIC), 1.25 µg/mL (≈ 3.91 µM).

(Values after paper PMC7321065, “Discovery of New Schiff Bases Tethered Pyrazole Moiety: Design, Synthesis, Biological Evaluation, and Molecular Docking Study as Dual Targeting DHFR/DNA Gyrase Inhibitors with Immunomodulatory Activity” (Molecules, 2020).)
